pKi: −log10 of the molar value. Entries after “also recorded” stand apart in the source; their conditions may differ. Like-named read-outs stand apart in the source and are kept apart here.
Columns and labels:
recombinant SAMHD1 [1] = molecular target: T1, recombinant SAMHD1 (Homo sapiens, UniProt Q9Y3Z3); assay: Enzyme-coupled malachite green assay, SAMHD1 in vitro activity (dGTP, ara-CTP, Cl-F-ara-ATP substrates); format: biochemical
T1 construct: His-tag (N); made in house; host or cells: E. coli BL21 (DE3)

recombinant SAMHD1 [2] = molecular target: T1, recombinant SAMHD1; assay: Kinetic study, enzyme-coupled MG assay with matrix of inhibitors and dGTP; format: biochemical; conditions: inhibitor 0.03-20 μM added before dGTP 6.25-200 μM
recombinant SAMHD1 [3] = molecular target: T1, recombinant SAMHD1; assay: B4NPP direct SAMHD1 enzymatic assay; format: biochemical; conditions: for Inhibition of SAMHD1 activity against B4NPP (in words): 2 mM B4NPP
recombinant SAMHD1 [4] = molecular target: T1, recombinant SAMHD1; assay: Differential scanning fluorometry (DSF); format: binding; conditions: for Effect on SAMHD1 thermal stability / Tm1: absence of nucleotides, up to 200 μM (0.2–[…]); for Effect on GTP-induced SAMHD1 dimerization (Tm1 transition): order-of-addition, 0.1 mM TH6342, 0.5 mM TH7127 pre-incubated before low GTP, TH7126 before or after GTP
[5] = system: T2, cellular SAMHD1 in THP-1 cell lysate; assay: Drug affinity responsive target stability (DARTS) on THP-1 cell lysates; format: binding, Human; conditions: 100 μM compound or 5 mM dGTP
T2 construct: lysate from THP-1 cells expressing endogenous wild-type SAMHD1; endogenous in cells; host or cells: THP-1

[6] = system: recombinant MTH1, dCTPase, dUTPase, ITPase, NUDT5, NUDT12, NUDT15 and NUDT22; assay: Compound selectivity, enzyme-coupled MG assays against panel of nucleoside pyro-/tri-phosphatases; format: biochemical, human; conditions: assayed up to 100 μM
recombinant SAMHD1 [7] = molecular target: T1, recombinant SAMHD1; assay: Dynamic light scattering (DLS), SAMHD1 particle size; conditions: 1 mM compound, 1 mM GTP
SAMHD1^Y146S/Y154S = system: T3, SAMHD1^Y146S/Y154S; assay: CETSA using lysates of SAMHD1−/− THP-1 cells with rescue expression of dimerization-defective variant; format: binding, Human; conditions: versus DMSO, full melt curves, 100 μM
T3 construct: expressed in transfected cells; host or cells: SAMHD1-/- THP-1 cell clone

recombinant SAMHD1 [8] = molecular target: T1, recombinant SAMHD1; assay: In vitro chemical crosslinking (glutaraldehyde), SAMHD1 multimers; conditions: 1.875 mM glutaraldehyde, GTP 0-5 mM
[9] = system: T4, wild-type SAMHD1 in THP-1 cell lysates; assay: CETSA using THP-1 cell lysates, wild-type SAMHD1; format: binding, Human
T4 construct: lysate from THP-1 cells expressing endogenous wild-type SAMHD1; endogenous in cells; host or cells: THP-1

[10] = system: T5, cellular SAMHD1 in intact THP-1 cells; assay: CETSA using intact THP-1 cells; format: cell-based, Human; conditions: 100 μM inhibitors or 10 mM thymidine, 2 h; isothermal at 53°C for inhibitors
T5 construct: lysate from THP-1 cells expressing endogenous wild-type SAMHD1; endogenous in cells; host or cells: THP-1

[11] = substrate Cl-F-ara-ATP 50 μM with GTP 12.5 μM as activator, read-out: IC50 (μM) Cl-F-ara-ATP
[12] = substrate ara-CTP 200 μM with dGTPαS 3.125 μM as activator, read-out: IC50 (μM) araCTP
[13] = substrate dGTP 25 μM, read-out: IC50 (μM) dGTP

T1 sequence (Q9Y3Z3 whole entry): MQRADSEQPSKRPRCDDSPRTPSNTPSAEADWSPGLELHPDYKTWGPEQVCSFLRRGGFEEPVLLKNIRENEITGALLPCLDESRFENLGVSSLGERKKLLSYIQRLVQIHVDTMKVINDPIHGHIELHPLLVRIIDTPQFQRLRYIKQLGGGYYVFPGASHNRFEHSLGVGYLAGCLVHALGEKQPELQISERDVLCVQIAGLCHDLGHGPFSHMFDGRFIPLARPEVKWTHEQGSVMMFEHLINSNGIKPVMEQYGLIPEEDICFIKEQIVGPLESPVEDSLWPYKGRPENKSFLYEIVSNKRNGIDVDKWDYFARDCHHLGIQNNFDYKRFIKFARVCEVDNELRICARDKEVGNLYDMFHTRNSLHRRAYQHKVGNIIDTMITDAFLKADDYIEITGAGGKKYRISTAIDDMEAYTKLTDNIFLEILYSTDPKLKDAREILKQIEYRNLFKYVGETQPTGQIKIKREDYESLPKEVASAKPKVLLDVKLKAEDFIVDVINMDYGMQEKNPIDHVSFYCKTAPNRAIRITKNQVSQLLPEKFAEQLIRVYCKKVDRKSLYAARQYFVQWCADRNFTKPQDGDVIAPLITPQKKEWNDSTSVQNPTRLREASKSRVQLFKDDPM

Row | SMILES | IC50 (recombinant SAMHD1 [1]; [11]) | IC50 (recombinant SAMHD1 [1]; [12]) | IC50 (recombinant SAMHD1 [1]; [13]) | Inhibition of SAMHD1 activity against B4NPP (in words) (recombinant SAMHD1 [3]; Mn2+) | Selectivity for SAMHD1 versus panel of nucleotide phosphatases [6] | Effect on reaction kinetics / Hill coefficient (Hn) (recombinant SAMHD1 [2]) | Effect on SAMHD1 thermal stability / Tm1 (recombinant SAMHD1 [4]) | Effect on GTP-induced SAMHD1 dimerization (Tm1 transition) (recombinant SAMHD1 [4]) | SAMHD1 stability to pronase treatment [5] | also measured
1 | Nc1nc2c(ncn2[C@H]2C[C@H](O)[C@@H](COP(=O)(O)OP(=O)(O)OP(=O)(O)O)O2)c(=O)[nH]1 [dGTP, reference compound] |  |  |  |  |  |  |  |  | substantially stabilized SAMHD1 | SAMHD1 stabilization against heat, cell lysate ([9]; 100 μM inhibitors or 5 mM dGTP, isothermal at 45°C for inhibitors): substantially stabilized SAMHD1
2 | Nc1nc2c(ncn2[C@H]2C[C@H](O)[C@@H](COP(O)(=S)OP(=O)(O)OP(=O)(O)O)O2)c(=O)[nH]1 (stereo partly drawn) [dGTPαS, reference compound] |  |  |  |  |  |  |  |  |  | Tm3 (recombinant SAMHD1 [4]; SAMHD1 melting temperature with dGTPαS up to 1 mM): ~70 °C
3 | Cc1cn([C@H]2C[C@H](O)[C@@H](CO)O2)c(=O)[nH]c1=O [thymidine, Thymidine] |  |  |  |  |  |  |  |  |  | SAMHD1 stabilization against heat, intact cells [10]: substantially stabilized SAMHD1

Now from value to compound, other results behind:

Row | IC50 (recombinant SAMHD1 [1]; [11]) | IC50 (recombinant SAMHD1 [1]; [12]) | IC50 (recombinant SAMHD1 [1]; [13]) | Inhibition of SAMHD1 activity against B4NPP (in words) (recombinant SAMHD1 [3]; Mn2+) | Selectivity for SAMHD1 versus panel of nucleotide phosphatases [6] | SMILES | Effect on reaction kinetics / Hill coefficient (Hn) (recombinant SAMHD1 [2]) | Effect on SAMHD1 thermal stability / Tm1 (recombinant SAMHD1 [4]) | Effect on GTP-induced SAMHD1 dimerization (Tm1 transition) (recombinant SAMHD1 [4]) | SAMHD1 stability to pronase treatment [5] | also measured
4 | > 100 µM | > 100 µM | > 100 µM | minimal inhibition |  | Nc1ccccc1-c1cn2ccnc2c(NCCc2ccccn2)n1 [TH7126, 6-(2-aminophenyl)-N-(2-(pyridin-2-yl)ethyl)imidazo[1,2-a]pyrazin-8-amine] | did not alter the reaction kinetics | did not alter SAMHD1 thermal stability | did not disrupt SAMHD1 dimerization |  | Inhibition of SAMHD1 (in words) (recombinant SAMHD1 [1]; dGTP, ara-CTP and Cl-F-ara-ATP substrates): Neg. control; also recorded: minimal inhibition
5 | 4 µM | 4.5 µM | 4.9 µM | retained their inhibitory activities | selectively inhibited SAMHD1 | COc1ccccc1-c1cn2ccnc2c(NCCc2ccccn2)n1 [TH7127, 6-(2-methoxyphenyl)-N-(2-(pyridin-2-yl)ethyl)imidazo[1,2-a]pyrazin-8-amine] | significantly increased hill coefficients | small concentration-dependent reduction in Tm1 | the allosteric activator was not able to fully remove the Tm1 transition | Neither TH6342 nor TH7127 in cell lysates altered SAMHD1 stability to pronase treatment | pKi (recombinant SAMHD1 [3]; B4NPP substrate, Mn2+, global fit, mixed inhibition model): 4.70; Mode of inhibition (recombinant SAMHD1 [3]; B4NPP substrate, global fitting): mixed mode of inhibition; alpha (α) (recombinant SAMHD1 [3]; B4NPP substrate, global fit, mixed inhibition model): 0.36
6 | 5.8 µM | 11 µM | 9.1 µM | retained their inhibitory activities | selectively inhibited SAMHD1 | Clc1ccccc1-c1cn2ccnc2c(NCCc2ccccn2)n1 [TH6342, 6-(2-chlorophenyl)-N-(2-(pyridin-2-yl)ethyl)imidazo[1,2-a]pyrazin-8-amine] | significantly increased hill coefficients | small concentration-dependent reduction in Tm1 | the allosteric activator was not able to fully remove the Tm1 transition | Neither TH6342 nor TH7127 in cell lysates altered SAMHD1 stability to pronase treatment | Effect on GTP-induced SAMHD1 dimerization (DLS) (recombinant SAMHD1 [7]): deterred GTP (1 mM)-induced SAMHD1 dimerization; Increase of aggregation temperature (Tagg) (SAMHD1^Y146S/Y154S): ~1 °C; Effect on GTP-induced SAMHD1 multimerization (crosslinking) (recombinant SAMHD1 [8]): deterred GTP-induced SAMHD1 multimerization; Effect on thermal stability of nucleotide-bound SAMHD1 (recombinant SAMHD1 [4]; 0.5 mM compound added after GTP at 5 mM or dGTPαS at 1 mM): mildly destabilized GTP-bound, but not dGTPαS-bound, SAMHD1 species; Aggregation temperature (Tagg) ± SE (°C) ([9]; Figure 7F, SAMHD1 Tagg summary, wild-type SAMHD1 lysate, 100 μM compound, DMSO 44.8 ± 0.6): 46.1 ± 0.4 °C
7 | 2.6 µM | 2.8 µM | 4.5 µM | retained their inhibitory activities | selectively inhibited SAMHD1 | c1ccc(CCNc2nc(-c3cccs3)cn3ccnc23)nc1 [TH7528, N-(2-(pyridin-2-yl)ethyl)-6-(thiophen-2-yl)imidazo[1,2-a]pyrazin-8-amine] | significantly increased hill coefficients | small concentration-dependent reduction in Tm1 |  |  | 

From PMC10839966, “Identification and evaluation of small-molecule inhibitors against the dNTPase SAMHD1 via a comprehensive screening funnel” (iScience, 2024)
